Assay results reported in a melting point compilation (Tetko et al.; mined from patent text by program, amines drawn as free bases though some values may be those of a salt).
Non-standard residues stand in square brackets, D forms with d. Residues, ends and D or L forms follow the SMILES beside them. *: point of attachment. Tos = Cc1ccc(S(=O)(=O)*)cc1; OBn = c1ccc(CO*)cc1; Sar = CNCC(=O)O

With CNC(=S)NCCSCc1ncccc1N the melting point was 99.5 °C.
COC(=O)N1CCC(Nc2nc3ccccc3n2Cc2ccc(F)cc2)C(C)C1 (stereo not given) gave a melting point of 172 °C.
With O=C(O)CCC(=O)c1ccc2c(c1)oc1ccccc12 the melting point was 208 to 210 °C.
In the case of CCCCCCCC1=CC(=O)N(Cc2ccccc2)C1=CBr, the melting point is reported as 52 to 55 °C.
Work on NC(=O)c1ccc(C(=O)O)c(N)c1 yielded a melting point of 276 to 278 °C.
Work on COC(=O)c1cc2ccc(SCCCc3cc4c(cc3OCc3ccccc3)CC(CCc3ccccc3)O4)cc2nc1OC (stereo not given) yielded a melting point of 96 to 98 °C.
Compound CCON=C(C(C)=NOCc1ccccc1C(=COC)C(=O)OC)c1ccc(OC(C)c2ccc(Cl)cc2)cc1 (stereo not given) has a melting point of 107 to 109 °C.
CC1(C)CCc2c(-c3ccoc3)nc3sc4c(NCc5ccccn5)ncnc4c3c2C1 gave a melting point of 235 to 236 °C.
Nc1ccc(C2OCCO2)nc1 showed a melting point of 81 to 82 °C.
NC(=O)C1=CN(CCCC(=O)NCCc2ccccc2)C=CC1 showed a melting point of 55 to 60 °C.
Work on COc1nc2c(c(OC)n1)C(c1ccc(F)c(OC)c1)C1=C(COC1=O)N2 (stereo not given) yielded a melting point of 267 to 270 °C.
O=C(c1ccccc1)n1c(SC(F)(F)F)cc(-c2ccc(F)cc2)c1-c1ccc(F)cc1 showed a melting point of 106 °C.
CCNC(=O)c1ccccc1-c1ccccc1 showed a melting point of 77 to 79 °C.
Work on CNC1(c2ccccc2Cl)C(=O)Nc2ccc(F)cc21 (stereo not given) yielded a melting point of 188 to 189 °C.
With CC1CN2CC(=O)N(C)c3ccc(Cl)cc3C2(c2ccccc2)O1 (stereo not given) the melting point was 142 to 143 °C.
With CC(=O)OCC1OC(n2ccnc2[N+](=O)[O-])CC1OC(C)=O (stereo not given) the melting point was 155 °C.
CCCc1nc2cnc3cc(Br)ccc3c2n1CC1CCN(C(=O)OC(C)(C)C)CC1 showed a melting point of 215 to 216 °C.
Work on COc1ccc(C2CCSCC2)cc1OC1CCCC1 yielded a melting point of 83 to 85 °C.
Compound Cn1ncc2nc3c(c(O)c21)CCCC3 has a melting point greater than 300 °C.
CN1CCc2c(-c3ccc(Cl)cc3)ccc([N+](=O)[O-])c2C1 showed a melting point of 162 to 163 °C.
With CC(C)CC(=O)NC(=O)c1nnn(Cc2ccccc2)c1N the melting point was 138 to 150 °C.
In the case of CC1=C(CC(NC(=O)c2ccc(Cl)cc2)NC(=N[N+](=O)[O-])Nc2cccnc2)C(C)(C)CCC1 (stereo not given), the melting point is reported as 217 to 218 °C.
O=C(O)C(CC1CCCC1)c1ccc(S(=O)(=O)C(F)(F)F)cc1 (stereo not given) showed a melting point of 143 to 145 °C.
In the case of CCC1=C(C#N)C(c2ccccc2OC)c2c[nH]nc2N1 (stereo not given), the melting point is reported as 230 to 232 °C.
Compound N#Cc1ccc2c(c1)ncn2-c1cccc(-c2cccnc2)c1 has a melting point of 191 to 193 °C.
OCC1OC(n2cnc3c(Nc4ccccc4)cc(Cl)nc32)C(O)C1O (stereo not given) showed a melting point of 157 to 160 °C.
With OC(c1ccc(F)cc1)C1(n2cncn2)CC1 (stereo not given) the melting point was 104 to 106 °C.
Compound CCCCc1oc2ccccc2c1C(=O)NCc1ccc2c(-c3ccc(OC)cc3)c(OC(Cc3ccccc3)C(=O)OC)ccc2c1 (stereo not given) has a melting point of 103 to 105 °C.
O=[N+]([O-])c1ccc2nc3c(nc2c1)OCC1CCCCN31 (stereo not given) showed a melting point of 151 to 154 °C.
O=Cc1ccc2nc3c(cc2c1)-c1cccc2cccc-3c12 showed a melting point of 245 to 246 °C.
Compound CCc1nccc2c(CC(=O)O)cccc12 has a melting point of 166 to 181 °C.
For COc1ccccc1Cn1c(-c2cc(OC)c(OC)c(OC)c2)nc2ccccc21, the melting point was 136 °C.
O=C(c1ccc(F)cc1)C1CCN(C2Sc3ccccc3NC2=O)CC1 (stereo not given) showed a melting point of 218 °C.
COc1cc(OC)cc(N2CCN(CCC3CN(C)C(=O)O3)CC2)c1 (stereo not given) gave a melting point of 85 to 87 °C.
Compound COc1ccccc1CCN(CCCCC(=O)c1ccc2c(c1)CCN2C(=O)Nc1ccccc1)C(=O)OC(C)(C)C has a melting point of 136 to 137 °C.
With O=C(Nc1ccc(Cl)cn1)c1cc(Cl)ccc1NCC1CCN(C2CCCCC2)CC1 the melting point was 186 to 188 °C.
NC(=O)c1ccnc(Cl)n1 showed a melting point of 152 to 154 °C.
Compound CNC(=O)c1cccc(C2=NC(C)(C)Cc3cc(OC)c4c(c32)CC(C)(C)O4)c1 has a melting point of 206 to 207 °C.
For c1cc(Oc2cnccn2)c2cc[nH]c2c1, the melting point was 192 to 193 °C.
In the case of CN(c1cc(OCC(N)=O)cc2cc(C3=NCC(CN4CCS(=O)CC4)S3)[nH]c12)S(=O)(=O)c1ccccn1 (stereo not given), the melting point is reported as 160 to 161 °C.
CC(C)(C)CNc1nc(Nc2cccc(NS(C)(=O)=O)c2)nc2[nH]cnc12 gave a melting point of 270 to 273 °C.
In the case of Nc1cccc(C#CCCN2CCC(O)(c3ccc(Cl)cc3)CC2)c1, the melting point is reported as 139 to 140 °C.
For Cc1c(C(=O)CBr)ncn1C, the melting point was 276 to 277 °C.
With CC(C)C(=O)NCc1cccc(-c2nc(=O)c3ccccc3s2)n1 the melting point was 189 °C.
Work on CCCCN1CCC(c2c[nH]c3ccc(NS(C)(=O)=O)cc23)CC1 yielded a melting point of 78 °C.
For COc1ccccc1CN[C@H]1CCCN(CCCCCCc2ccccc2)[C@H]1c1ccccc1 (relative stereo), the melting point was 48 to 53 °C.
For CCc1ccccc1Sc1c(O)cc(-c2ccccc2)oc1=O, the melting point was 190 to 192 °C.
O=C(Nc1ccc(C2=CCN(C(=O)OCc3ccccc3)CC2)cc1)OCc1ccccc1 gave a melting point of 146 to 148 °C.
OCc1ccc2ccc3cccc4ccc1c2c34 showed a melting point of 125 to 126 °C.
Compound CCCc1cc(Cl)cc2nc(Cc3ccc(OC)c(OC4CCCC4)c3)oc12 has a melting point of 54 to 55 °C.
Work on COC(=O)c1ccc(-c2nc(-c3ccc(C(C)C)cc3)cs2)cc1 yielded a melting point of 134 to 135 °C.
Work on O=C1Cc2c(cccc2-c2ccccc2)N1 yielded a melting point of 192 to 194 °C.
Work on COc1ccc2ncc(F)cc2c1 yielded a melting point of 51 to 53 °C.
Cc1cc(C)nc(COCP(=O)(O)O)c1 gave a melting point of 153 to 156 °C.
In the case of N#CC=C(Cc1ccc2c(c1)OCO2)Nc1ccccc1, the melting point is reported as 150 to 151 °C.
Cc1ccc(S(=O)(=O)OCCOc2ccc3[nH]nc(S(=O)(=O)c4ccccc4)c3c2)cc1 showed a melting point of 174 to 177 °C.
In the case of N#Cc1ccc2[nH]cc(C3=CCN(CC4COc5cccnc5O4)CC3)c2c1 (stereo not given), the melting point is reported as 165 °C.
CC1(C)C(=O)N(Cc2ccccc2)C(=O)N1CC#CI gave a melting point of 83 to 85 °C.
For CC(C)(C)COc1ccc([N+](=O)[O-])cc1Br, the melting point was 86 to 88 °C.
Compound CC1(C)CC(N(C=O)C2CCCCC2)CC(C)(C)N1 has a melting point of 105 °C.
In the case of Cc1cccc(C=NNc2nc(OCCc3ccccn3)nc(N3CCOCC3)n2)c1, the melting point is reported as 143 to 147 °C.
For CN1N=C2C(=Cc3ccccc3)CN(C(=O)CCCl)CC2C1c1ccccc1 (stereo not given), the melting point was 134 to 136 °C.
CC(C)(C)c1cc(C(=O)OCCC(=O)Oc2ccc(Cl)c([N+](=O)[O-])c2)cc(C(C)(C)C)c1O gave a melting point of 106 to 108 °C.
In the case of O=C1c2c(Cl)cccc2S(=O)(=O)N1CCl, the melting point is reported as 135 to 136 °C.
Work on CN(CCOc1ccc(C=O)cc1)c1ncccn1 yielded a melting point of 74 to 75 °C.
CCCCC1=NSc2ccccc2N1Cc1ccc(-c2ccccc2C(=O)O)cc1 gave a melting point of 215 to 217 °C.
COc1nc(C)cnc1NS(=O)(=O)c1cccnc1-c1ccc(N2CCOCC2)cc1 showed a melting point of 197 to 198 °C.
CC1CCc2ncc([N+](=O)[O-])cc2C1 (stereo not given) gave a melting point of 50 to 52 °C.
For CS(=O)(=O)c1ccc(-c2sc(-c3ccc(Br)s3)nc2-c2ccc(F)cc2)cc1, the melting point was 190 to 191 °C.
CSc1nc(O)c(C#N)n1C(C)C showed a melting point of 196 to 198 °C.
In the case of C#CCOc1cc(C=O)cc(Cl)c1OCC#C, the melting point is reported as 64 to 65 °C.
NS(=O)(=O)c1ccc(-c2[nH]c3ccc(F)cc3c2-c2ccccc2)cc1 showed a melting point of 302 to 304 °C.
COC(=O)Nc1cccc2c1C(=O)c1ccccc1C2=O showed a melting point of 214 °C.
Compound O=C(O)COc1nnc(C(F)(F)F)s1 has a melting point of 58 °C.
For CC(C)(C)OC(=O)[C@H](NS(=O)(=O)c1ccc2c(Cl)cnc(Cl)c2c1)C(C)(C)C, the melting point was 140 to 142 °C.
Compound COC(=O)c1cc(C(=O)OC)n(-c2ccc([N+](=O)[O-])cc2C(=O)c2ccccc2)n1 has a melting point of 150 to 152 °C.
Compound CC(C)Sc1cc(C(C)(C)C)c(O)c(C(C)(C)C)c1 has a melting point of 80 to 82 °C.
Work on CCC(OC)C(=O)Nc1ccc(C2=NNC(=O)CC2C)cc1 (stereo not given) yielded a melting point of 151 to 152 °C.
In the case of S=C(Cc1ccc2ccccc2c1)N1CCCCC1, the melting point is reported as 89 to 91 °C.
CN(Cc1cc(C(F)(F)F)cc(C(F)(F)F)c1)C(=O)c1c(-c2ccc(F)cc2)c2nccnc2c(=O)n1C gave a melting point of 220 to 222 °C.
Work on CCOC(=O)c1ccc(-c2nc(COc3ccc(C=O)cc3OC)c(C)o2)s1 yielded a melting point of 155 to 156 °C.
Work on O=C1NCCNc2c1cccc2[N+](=O)[O-] yielded a melting point of 191 to 195 °C.
Compound Cc1ccc(S(=O)(=O)N(C)CC(=O)N[C@@H](Cc2ccccc2)C(=O)OCc2ccccc2)cc1 (Tos-[Sar]-Phe-OBn) has a melting point of 80 to 82 °C.
CCCc1c2c(c([N+](=O)[O-])c3c(=O)cc(C(=O)O)oc13)CCCC2 gave a melting point of 265 to 267 °C.
COc1ccc(C2CSc3ccccc3NC2=O)cc1Br (stereo not given) showed a melting point of 200 °C.
Work on O=C1N(Cc2ccc(C(F)(F)F)o2)c2c(Cl)cccc2C12COc1cc3c(cc12)CCO3 (stereo not given) yielded a melting point of 210 to 211 °C.
In the case of Cc1cc(-c2cccc(NC(=O)N[C@@H]3c4cc(C#N)ccc4OC(C)(C)[C@H]3O)c2)nn1C, the melting point is reported as 120 to 130 °C.
Compound CC(C)(O)CON1C(C)(C)CC(OC(=O)c2ccc3nn(-c4cc(C(C)(C)C)cc(C(C)(C)c5ccc(Cl)cc5)c4O)nc3c2)CC1(C)C has a melting point of 80 to 90 °C.
With O=C(Nc1cccc2ccccc12)N(CCCN1CCC(Cc2ccccc2)CC1)c1ccccc1 the melting point was 124 to 127 °C.
Compound COc1ccc(COC(=O)C2=C3[C@@H](C)[C@H](C)[C@@H]3S[C@@H]3[C@H](NC(=O)Cc4ccccc4)C(=O)N23)cc1 has a melting point of 172 to 173 °C.
In the case of CC(=O)Nc1nc(-c2ccc(SCOC(C)=O)cc2)cs1, the melting point is reported as 144 to 145 °C.
For O=C1CC(C(=O)O)Oc2ccccc21 (stereo not given), the melting point was 170 to 171 °C.
Work on CS(=O)(=O)Oc1cc(NN)c(F)cc1Cl yielded a melting point of 75 to 77 °C.
CN(C)C(=O)CNc1ccncc1[N+](=O)[O-] showed a melting point of 142 to 143 °C.
Compound COC(=O)C1=C(C)NC(c2c(F)cccc2F)=NC1c1ccc(F)cc1Cl (stereo not given) has a melting point of 126 to 128 °C.
For CC(C)(C)OC(=O)N1CCC2(CC1)c1ccccc1CS2=O (stereo not given), the melting point was 103 to 107 °C.
In the case of CO[C@@H]1[C@@H](OC)[C@H](C)O[C@@H](OC(=S)Nc2ccc(-c3nccn3-c3ccc(OC(F)(F)F)cc3)cc2)[C@@H]1OC, the melting point is reported as 129 °C.
Cc1nc(N(Cc2ccccc2)Cc2ccccc2)c2nc(Cc3ccccc3)n(CCc3ccccc3)c2c1C showed a melting point of 139 to 141 °C.
With C=Cc1c(C)c(NC(=O)CC(C)(C)C)c(C)c2c1OCC2c1ccc(C(C)C)cc1 (stereo not given) the melting point was 171 to 172 °C.
In the case of CCCn1ncc(C#N)c1N, the melting point is reported as 85 to 90 °C.
